{"source": "paper PMC11939361", "about": "“diAcCA, a Pro-Drug for Carnosic Acid That Activates the Nrf2 Transcriptional Pathway, Shows Efficacy in the 5xFAD Transgenic Mouse Model of Alzheimer’s Disease” (Antioxidants, 2025)", "key": {"[1]": {"experiment": "Brain levels of CA from prior plasma/brain PK data", "format": "in vivo", "conditions": "for Cmax: mouse, read-out: predicted Cmax in the brain", "method": "We also determined the stability and bioavailability of diAcCA compared to CA. For this purpose, individual mice were administered CA or diAcCA IV or via oral gavage/PO. For CA, the doses were 3 mg/kg for the IV route and 10 mg/kg for oral gavage/PO, and for diAcCA 10 mg/kg by oral gavage/PO. Plasma concentrations were evaluated at ten different time points over the next 72 h (raw data shown in Tables S1 and S2, Supplementary Materials).\nThe extensive existing PK data obtained on plasma and brain samples for CA, correlated with prior in vivo efficacy data for CA [26, 33, 49], allowed us to calculate the therapeutic dose range that we wanted to test here for diAcCA."}, "WT 6XC57BL6 mice": {"tested_on": "WT 6XC57BL6 mice", "experiment": "Non-GLP toxicology analysis of esophagus and stomach (H&E, inflammation)", "format": "in vivo, mouse", "conditions": "for overall safety / toxicology: in vivo", "description": "Starting at 5 months of age, WT 6XC57BL6 mice were given either the highest dose of diAcCA used in this study (50 mg/kg) or olive oil vehicle three times a week for three months by oral gavage/PO. Following the treatment, the esophagus and stomach were isolated, and 5 μm-thick coronal and sagittal sections were cut from the esophagus. The stomach was opened along the greater curvature, cleaned with PBS, and pinned flat. Two 5 μm-thick sagittal sections were collected, one extending from the cardiac region to the duodenum, and the other from the forestomach to the fundic area. All sections were made using a rotary microtome (HM325-#387821, Fisher Scientific) and mounted on SuperfrostPlus slides (#1255015, Fisher brand). The sections were stained by hematoxylin and eosin stain (H&E) [Abcam H&E kit, ab245880], mounted with permount, dried overnight at room temperature, and then imaged. Acquired images were analyzed in a masked fashion for inflammation by a board-certified pathologist.\nExtensive toxicity and safety data are already published on CA [47, 48]. […] Accordingly, in light of our PK findings, we selected a dose of 50 mg/kg to assess safety of the drug after oral administration to WT mice. We performed a non-GLP toxicology analysis of vehicle (olive oil) or drug administered PO three times a week for 3 months starting at 5 months of age. Following this period, sections from the stomach and esophagus were stained with H&E and examined blindly by a board-certified toxicologic pathologist.\nSupplementary Figure S2. Pharmacokinetic and safety studies for diAcCA. […]\n(D, E) Non-GLP toxicology analysis on WT mice after treatment with vehicle ( olive oil) or the highest concentration of diAcCA (50 mg/ kg) used in these experiments.\nRepresentative esophagus and stomach lining sections (D) stained by hematoxylin & eosin (H&E) from two groups of mice. Scale: 500 μm. Bar graph (E) quantifying inflammation in esophagus (periesophagitis) and stomach (neutrophilic gastritis) by a standard tox inflammatory score ranging from 0 to 4 (0: inflammation within normal limits, 1: minimal […]\nbaseline inflammation in WT mice (n =3 animals in each group).\n(1 picture or pasted object on this page, not shown here)"}, "5xFAD mice": {"tested_on": "5xFAD mice", "experiment": "Contextual and cued conditioned fear test", "format": "in vivo, mouse", "conditions": "diAcCA PO for 3 months", "description": "diAcCA or control vehicle was administered three times per week for 3 months to 5xFAD Tg or WT littermate control mice starting at approximately 5 months of age by oral gavage (designated here as “per os” or PO). Three different doses were used (10 mg/kg, 20 mg/kg, or 50 mg/kg). diAcCA was dissolved in olive oil vehicle, a non-polar organic solvent. For vehicle control, we administered olive oil alone. A total of 45 animals were used in this study, with 7–8 animals in each group.\nContextual and cued learning processes in mice rely on the hippocampus and amygdala, respectively. Fear conditioning is used to evaluate both of these processes. During the conditioning period, mice are trained to associate a context (distinctive environment) and a conditioned stimulus (CS, neutral stimulus consisting of a tone and light) with an unpleasant foot shock to which the mice learn to respond by freezing their movement. Here, we evaluated hippocampal function using the contextual and cued conditioned fear test. […]\nOn day 1, the mice were acclimatized to the chambers in a 5 min session with no shock. […] On day 3, a 5 min trial took place in the original training chamber (context test) and contextual conditioning was evaluated by observing freezing behavior. […]"}}, "note": "“Also recorded” adds a separate entry of the source. Like-named read-outs stand apart in the source and are kept apart here."}
{"compound": "CC(=O)Oc1c(C(C)C)cc2c(c1OC(C)=O)[C@@]1(C(=O)O)CCCC(C)(C)[C@@H]1CC2", "note": "[diAcCA]", "values": [{"measurement": "time to reach neurotherapeutic levels in the brain", "setting": "[1]; after conversion of diAcCA to CA", "result": "less than 1 h"}, {"measurement": "Cmax", "setting": "[1]; diAcCA 10 mg/kg PO", "result": "~600", "unit": "nM"}, {"measurement": "Cmax", "setting": "[1]; diAcCA 20 mg/kg PO", "result": "~1200", "unit": "nM"}, {"measurement": "Cmax", "setting": "[1]; diAcCA 50 mg/kg PO", "result": "~3000", "unit": "nM"}, {"measurement": "baseline inflammation in the esophagus (periesophagitis), H&E", "setting": "WT 6XC57BL6 mice; WT mice, 50 mg/kg PO three times a week for 3 months vs olive oil vehicle, n = 3, 50 mg/kg", "result": "appeared to improve; also recorded: improved baseline inflammation in the esophagus"}, {"measurement": "overall safety / toxicology", "setting": "WT 6XC57BL6 mice; mouse", "result": "as safe or safer than CA"}, {"measurement": "overall safety / toxicology", "setting": "WT 6XC57BL6 mice; mouse, listed as diAcCa", "result": "no toxicological issues"}, {"measurement": "toxicity to the digestive system after oral administration", "setting": "WT 6XC57BL6 mice; mouse", "result": "no toxicity was noted"}, {"measurement": "context test of conditioned fear, freezing behavior", "setting": "5xFAD mice", "result": "showed freezing behavior similar to WT mice"}]}
